# In US12065471B2, “B*44 restricted peptides for use in immunotherapy against cancers and related methods” (Immatics Biotechnologies GmbH, priority 2018, dated 2024):
# Columns and labels:
# [1] = system: CD8+ T cells; assay: In vitro immunogenicity: T-cell priming with aAPCs loaded with peptide/MHC and anti-CD28, pMHC multimer readout; type: cell-based, human; settings: Table 10b, pMHC multimer readout after T-cell priming
# Procedure: After three cycles of stimulation, the detection of peptide-reactive cells was performed by 2D multimer staining with B*44/SEQ ID NO: 469 (FIG. 3A), B*44/SEQ ID NO: 512 (FIG. 3B), B*44/SEQ ID NO: 9 (FIG. 3C), B*44/SEQ ID NO: 11 (D), B*44/SEQ ID NO: 17 (E), B*44/SEQ ID NO: 35 (F) or B*44/SEQ ID NO: 41 (FIG. 3G). Right panels (FIGS. 3A through 3G) show control staining of cells stimulated with irrelevant B*44/peptide complexes. Viable singlet cells were gated for CD8+ lymphocytes. Boolean gates helped excluding false-positive events detected with multimers specific for different peptides.
# In order to obtain information regarding the immunogenicity of the TUMAPs of the present invention, the inventors performed investigations using an in vitro T-cell priming assay based on repeated stimulations of CD8+ T cells with artificial antigen presenting cells (aAPCs) loaded with peptide/MHC complexes and anti-CD28 antibody.
# In order to perform in vitro stimulations by artificial antigen presenting cells loaded with peptide-MHC complex (pMHC) and anti-CD28 antibody, the inventors first isolated CD8+ T cells from fresh HLA-A*02 leukapheresis products via positive selection using CD8 microbeads (Miltenyi Biotec, Bergisch-Gladbach, Germany) of healthy donors obtained from the University clinics Mannheim, Germany, after informed consent.
# PBMCs and isolated CD8+ lymphocytes were incubated in T-cell medium (TCM) until use consisting of RPMI-Glutamax (Invitrogen, Karlsruhe, Germany) supplemented with 10% heat inactivated human AB serum (PAN-Biotech, Aidenbach, Germany), 100 U/ml Penicillin/100 μg/ml Streptomycin (Cambrex, Cologne, Germany), 1 mM sodium pyruvate (CC Pro, Oberdorda, Germany), 20 μg/ml Gentamycin (Cambrex). 2.5 ng/ml IL-7 (PromoCell, Heidelberg, Germany) and 10 U/ml IL-2 (Novartis Pharma, Nümberg, Germany) were also added to the TCM at this step.
# Generation of pMHC/anti-CD28 coated beads, T-cell stimulations and readout was performed in a highly defined in vitro system using four different pMHC molecules per stimulation condition and 8 different pMHC molecules per readout condition.
# The purified co-stimulatory mouse IgG2a anti human CD28 Ab 9.3 (Jung et al., 1987) was chemically biotinylated using Sulfo-N-hydroxysuccinimidobiotin as recommended by the manufacturer (Perbio, Bonn, Germany). Beads used were 5.6 μm diameter streptavidin coated polystyrene particles (Bangs Laboratories, Illinois, USA).
# 800.000 beads/200 μl were coated in 96-well plates in the presence of 4×12.5 ng different biotin-pMHC, washed and 600 ng biotin anti-CD28 were added subsequently in a volume of 200 μl. Stimulations were initiated in 96-well plates by co-incubating 1×10^6 CD8+ T cells with 2×10^5 washed coated beads in 200 μl TCM supplemented with 5 ng/ml IL-12 (PromoCell) for 3 days at 37° C. Half of the medium was then exchanged by fresh TCM supplemented with 80 U/ml IL-2 and incubating was continued for 4 days at 37° C. This stimulation cycle was performed for a total of three times. For the pMHC multimer readout using 8 different pMHC molecules per condition, a two-dimensional combinatorial coding approach was used as previously described (Andersen et al., 2012) with minor modifications encompassing coupling to 5 different fluorochromes. Finally, multimeric analyses were performed by staining the cells with Live/dead near IR dye (Invitrogen, Karlsruhe, Germany), CD8-FITC antibody clone SK1 (BD, Heidelberg, Germany) and fluorescent pMHC multimers. For analysis, a BD LSRII SORP cytometer equipped with appropriate lasers and filters was used. Peptide specific cells were calculated as percentage of total CD8+ cells. Evaluation of multimeric analysis was done using the FlowJo software (Tree Star, Oregon, USA). In vitro priming of specific multimer+CD8+ lymphocytes was detected by comparing to negative control stimulations.
# [2] = molecular target: HLA-B*44:05 (Homo sapiens, UniProt P01889, A223V/A65T/A93T/A95T/D201E/D98Y/E176V/E187L/E204Q/E69K/G107R/H137Y/K202T/L105A/L119I/N104T/N87E/Q56L/Q94N/R106L/R155S/R180D/S101N/S121R/S35A/S48T/T118I/V36M/W191S/Y91S); assay: MHC binding assay (UV-ligand exchange, β2m ELISA, peptide exchange yield); settings: binding to HLA-B*44:05
# Method in brief: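 Peptide–HLA complexes formed by UV-ligand exchange of a UV-cleavable peptide for the test peptide. Exchange yield measured by β2m ELISA: complexes diluted 100-fold and captured on streptavidin, detected with HRP anti-β2m and TMB, read at 450 nm. Quantified against refolded HLA-A*02:01/MLA-001 monomer standards, 15-500 ng/ml.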
Substance,"Peptide exchange (MHC class I binding score, peptide exchange yield) [2]",Wells positive [%] [1]
80 (TEQSLYYRQW; listed as Homo sapiens) [compound 80],+++ (>50 = +++),++++ (>=70% = ++++)
83 (TEGGTQKTF; listed as Homo sapiens) [compound 83],+++ (>50 = +++),++++ (>=70% = ++++)
420 (MEVDPIGHVY; listed as Homo sapiens) [compound 420],+++ (>50 = +++),+ (<20% = +)

# Continued, in another order:
"Peptide exchange (MHC class I binding score, peptide exchange yield) [2]",Substance,Wells positive [%] [1]
+++ (>50 = +++),421 (TEDYSKQAL; listed as Homo sapiens) [compound 421],+ (<20% = +)
+++ (>50 = +++),422 (EEAQWVRKYF; listed as Homo sapiens) [compound 422],++++ (>=70% = ++++)
